Read-outs that look alike come from different tables or passages of the source.
Target: T1, human TRPM8 receptor (Homo sapiens, UniProt Q7Z2W7)
T1 construct: expressed in transfected cells; host or cells: HEK293, stably transfected, tetracycline-inducible expression
Test: Assay on TRPM8 modulators: Ca2+-sensitive dye (Fluo-4) fluorescence in HEK293-TRPM8 test cells
Type: cell-based
Set-up: relative TRPM8 activation: concentration or dose not given beside the values
Details: for EC50: HEK293-TRPM8 cells; for relative TRPM8 activation: HEK293 cells recombinantly expressing human TRPM8
Excerpt: The starting point for cloning the human TRPM8 receptor is an LnCaP cDNA bank. This is commercially available (e.g. BioChain, Hayward, USA) or can be produced from the andro gene-sensitive human prostate adenocarcinoma cell line LnCaP (e.g. ATCC, CRL1740 or ECACC, 891 1021 1) using standard kits.
The coding TRPM8 sequence (see e.g. http://www. ncbi.nlm.nih.gov/entrez/viewer.fcgi?db=nuccore&id=109689694) can be PCR-amplified and cloned using standard methods. The human TRPM8 gene isolated in this way was used to produce the plasmid plnd_M8. Alternatively, the TRPM8 gene can also be produced synthetically.
A stably transfected HEK293 cell line was produced as a test cell system using human TRPM8 DNA. Preference was given to HEK293, which offers the possibility of inducing TRPM8 expression using tetracycline via the plasmid introduced.
A test similar to the test already described in the literature by Behrendt H. J. et al, Br. J. Pharmacol. 141, 2004, 737-745, is performed. The agonization or antagonization of the receptor can be quantified using a Ca^2+-sensitive dye (e.g. FURA, Fluo-4 etc.). Agonists alone cause an increase in the Ca^2+ signal; antagonists cause a reduction in the Ca^2+ signal in the presence of e.g. menthol (detected in each case using the Fluo-4 dye, which has different fluorescence properties due to Ca^2+ ions).
First, a fresh culture of transformed HEK cells is prepared in cell culture flasks in the usual way. The HEK293-TRPM8 test cells are detached from the cell culture flasks using trypsin and 40,000 cells/well are seeded with 100 μl medium in 96-well plates (Greiner #655948 poly-D-lysine-coated). To induce the TRPM8 receptor, tetracycline is added to the growth medium (DMEM/HG, 10% FCS tetracycline-free, 4 mM L-glutamine, 15 μg/ml blasticidin, 100 μg/ml hygromycin B, 1 μg/ml tetracycline).
On the following day, the cells are loaded with Fluo-4AM dye and the test is performed. Proceed as follows: Addition of 100 μl/well staining solution Ca-4 kit (RB 141, Molecular Devices) to each 100 μl medium (DMEM/HG, 10% FCS tetracycline-free, 4 mM L-glutamine, 15 μg/ml blasticidin, 100 μg/ml hygromycin B, 1 μg/ml tetracycline).
Incubation in incubator, 30 minutes/37° C./5% CO2, 30 minutes/RT.
Preparation of the test substances (different concentrations in 200 μl HBSS buffer), as well as positive controls (different concentrations of menthol, icilin or lonomycin in 200 μl HBSS buffer) and negative controls (only 200 μl HBSS buffer) Addition of the test substances in quantities of 50 μl/well and measurement of the fluorescence change (e.g. in the assay device FLIPR, Molecular Devices or NovoStar, BMG) at 485 nm excitation, 520 nm emission, and evaluation of the potency of the different substances/concentrations and determination of the ECG. e.g. in the FLIPR assay device, Molecular Devices or NovoStar, BMG) at 485 nm excitation, 520 nm emission, and evaluation of the potency of the various substances/concentrations and determination of the EC50 values.
The test substances are used in triplicates in concentrations of 0.1-200 μM in the assay. Normally, the compounds are kept ready in DMSO solutions and diluted down to a maximum DMSO concentration of 2% for the assay.
The activity of the active substances in relation to activation of the TRPM8 channel is determined using the assay described. This is done in a concentration-dependent manner. For each active substance, 6 to 10 concentrations are measured as standard. A mathematical method (4-parameter or 5-parameter logistic curve fitting) can be used to determine the EC50 value as the inflection point of the sigmoidal curve from the activity values determined. These are standard biochemical methods that are familiar to experts.

[1] = TRPM8 activation, 6 to 10 concentrations, logistic curve fitting, read-out: EC50 value

T1 sequence (Q7Z2W7 whole entry): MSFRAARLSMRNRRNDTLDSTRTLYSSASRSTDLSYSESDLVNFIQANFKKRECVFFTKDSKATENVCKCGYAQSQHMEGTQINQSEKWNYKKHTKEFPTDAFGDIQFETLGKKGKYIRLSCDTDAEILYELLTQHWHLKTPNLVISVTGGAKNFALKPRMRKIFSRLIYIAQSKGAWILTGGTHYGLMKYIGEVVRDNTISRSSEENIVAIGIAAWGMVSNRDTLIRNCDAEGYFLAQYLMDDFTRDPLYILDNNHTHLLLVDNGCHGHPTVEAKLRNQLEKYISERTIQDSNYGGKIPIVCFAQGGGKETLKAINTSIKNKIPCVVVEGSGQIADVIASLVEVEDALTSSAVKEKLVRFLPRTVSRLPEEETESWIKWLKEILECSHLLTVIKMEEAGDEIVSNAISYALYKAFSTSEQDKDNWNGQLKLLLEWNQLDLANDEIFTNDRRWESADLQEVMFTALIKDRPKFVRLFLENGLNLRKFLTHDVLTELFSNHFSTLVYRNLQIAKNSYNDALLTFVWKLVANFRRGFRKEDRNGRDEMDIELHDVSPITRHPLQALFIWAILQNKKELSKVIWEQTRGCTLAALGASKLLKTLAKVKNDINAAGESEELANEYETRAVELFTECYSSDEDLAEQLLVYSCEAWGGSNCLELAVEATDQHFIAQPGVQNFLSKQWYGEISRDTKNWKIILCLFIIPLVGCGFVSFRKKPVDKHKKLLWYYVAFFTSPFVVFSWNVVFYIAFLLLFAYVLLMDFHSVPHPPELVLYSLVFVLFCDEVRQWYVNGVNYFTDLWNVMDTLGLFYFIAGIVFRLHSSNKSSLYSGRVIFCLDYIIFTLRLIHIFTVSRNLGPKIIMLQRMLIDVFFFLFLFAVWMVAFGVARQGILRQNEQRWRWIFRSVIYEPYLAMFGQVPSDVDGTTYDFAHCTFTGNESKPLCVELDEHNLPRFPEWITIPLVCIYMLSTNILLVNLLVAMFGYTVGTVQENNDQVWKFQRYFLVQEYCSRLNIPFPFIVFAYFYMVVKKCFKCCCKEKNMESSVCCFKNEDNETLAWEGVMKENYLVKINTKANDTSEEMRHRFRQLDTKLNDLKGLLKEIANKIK

Structure (SMILES): CNC(=O)C(C)Sc1nc(-c2ccccc2)c(-c2ccccc2)o1 (stereo not shown) [Compound A-01, 3-carboxy-3,5-dihydroxy-5-OXO-pentanoate;2-(4,5-diphenyloxazol-2-yl)sulfanylpropa noyl-methyl-ammonium]
- EC50 (Table 6, read-out: TRPM8 EC50): 10 nM
- EC50 (Table 8, read-out: TRPM8 EC50): 10 nM

Structure (SMILES): CNC(=O)C(C)Sc1nc(-c2ccccc2)c(-c2ccccc2)o1 (stereo not shown) [Compound A-03, 2-(4,5-diphenyloxazol-2-yl)sulfanylpropa noyl-methyl-ammonium; chloride]
- EC50 [1]: ≤ 1000 nM
- EC50 (Table 6, read-out: TRPM8 EC50): 10 nM
- EC50 (Table 8, read-out: TRPM8 EC50): 10 nM

Structure (SMILES): O=C(CSc1nc(-c2ccccc2)c(-c2ccccc2)o1)NC1CC1 [Compound A-06, N-cyclopropyl-2-(4,5-diphenyloxazol-2-yl)sulfanyl-acetamide]
- EC50 [1]: ≤ 1000 nM
- EC50 (Table 6, read-out: TRPM8 EC50): 340 nM
- EC50 (Table 8, read-out: TRPM8 EC50): 340 nM

Structure (SMILES): CSCC(=O)N1CCCCC1c1nc(-c2ccc(C)cc2)co1 (stereo not shown) [Compound A-08, 2-methylsulfanyl-1-[2-[4-(p-tolyl)oxazol-2-yl]-1-piperidyl] ethanone]
- EC50 [1]: ≤ 1000 nM
- EC50 (Table 6, read-out: TRPM8 EC50): 110 nM
- EC50 (Table 8, read-out: TRPM8 EC50): 110 nM

Structure (SMILES): CNC(=O)CSc1nc(-c2ccccc2)c(-c2ccccc2)o1 [Compound A-15, 2-(4,5-diphenyloxazol-2-yl)sulfanyl-N-methyl-acetamide]
- EC50 (Table 6, read-out: TRPM8 EC50): 7140 nM
- EC50 (Table 8, read-out: TRPM8 EC50): 7140 nM

Structure (SMILES): CCNC(=O)CSc1nc(-c2ccccc2)c(-c2ccccc2)o1 [Compound A-17, 2-(4,5-diphenyloxazol-2-yl)sulfanyl-N-ethyl-acetamide]
- EC50 (Table 6, read-out: TRPM8 EC50): 5850 nM
- EC50 (Table 8, read-out: TRPM8 EC50): 5850 nM

Structure (SMILES): CC(C)NC(=O)CSc1nc(-c2ccccc2)c(-c2ccccc2)o1 [Compound A-19, 2-(4,5-diphenyloxazol-2-yl)sulfanyl-N-isopropyl-acetamide]
- relative TRPM8 activation: 75%

Structure (SMILES): CSCC(=O)N1CCCCC1c1nc(-c2ccccc2)c(-c2ccccc2)o1 (stereo not shown) [Compound A-21, 1-[2-(4,5-diphenyloxazol-2-yl)-1-piperidyl]-2-methylsulfanyl-ethanone]
- relative TRPM8 activation: 70%

Structure (SMILES): CN(C)CCSc1nc(-c2ccccc2)c(-c2ccccc2)o1 [Compound A-23, 2-(4,5-diphenyloxazol-2-yl)sulfanyl-N,N-dimethyl-ethanamine]
- relative TRPM8 activation: 62%

Structure (SMILES): CC(=O)NCCc1nc(-c2ccccc2)c(-c2ccccc2)o1 [Compound A-24, N-[2-(4,5-diphenyloxazol-2-yl)ethyl] acetamide]
- relative TRPM8 activation: 56%
- EC50 (Table 6, read-out: TRPM8 EC50): 11300 nM
- EC50 (Table 8, read-out: TRPM8 EC50): 11300 nM

Structure (SMILES): CNC(=O)C(C)Sc1nc(-c2ccc(C)cc2)c(-c2ccc(C)cc2)o1 (stereo not shown) [Compound A-25, 2-[4,5-bis (p-tolyl)oxazol-2-yl]sulfanyl-N-methyl-propanamide]
- relative TRPM8 activation: 55%

Structure (SMILES): CC(CO)NC(=O)CSc1nc(-c2ccccc2)c(-c2ccccc2)o1 (stereo not shown) [Compound A-26, 2-(4,5-diphenyloxazol-2-yl)sulfanyl-N-(2-hydroxy-1-methyl-ethyl)acetamide]
- relative TRPM8 activation: 51%

Structure (SMILES): CN(C(=O)CSc1nc(-c2ccccc2)c(-c2ccccc2)o1)C1CC1 [Compound A-27, N-cyclopropyl-2-(4,5-diphenyloxazol-2-yl)sulfanyl-N-methyl-acetamide]
- relative TRPM8 activation: 42%
- EC50 (Table 6, read-out: TRPM8 EC50): 18000 nM
- EC50 (Table 8, read-out: TRPM8 EC50): 18000 nM

Structure (SMILES): CNC(=O)C(C)S(=O)(=O)c1nc(-c2ccccc2)c(-c2ccccc2)o1 (stereo not shown) [Compound A-28, 2-(4,5-diphenyloxazol-2-yl)sulfonyl-N-methyl-propanamide]
- relative TRPM8 activation: 40%

Structure (SMILES): CCN(CC)C(=O)CSc1nc(-c2ccccc2)c(-c2ccccc2)o1 [Compound A-29, 2-(4,5-diphenyloxazol-2-yl)sulfanyl-N,N-diethyl-acetamide]
- relative TRPM8 activation: 36%

Structure (SMILES): CC(Sc1nc(-c2ccccc2)c(-c2ccccc2)o1)C(=O)NC1CCCC1 (stereo not shown) [Compound A-30, N-cyclopentyl-2-(4,5-diphenyloxazol-2-yl)sulfanyl-propanamide]
- relative TRPM8 activation: 26%

Structure (SMILES): O=C(CCc1nc(-c2ccccc2)c(-c2ccccc2)o1)C1CC1 [Compound A-31, 1-cyclopropyl-3-(4,5-diphenyloxazol-2-yl)propan-1-one]
- relative TRPM8 activation: 24%

Structure (SMILES): CNC(=O)CCc1nc(-c2ccc(C)cc2)c(-c2ccc(C)cc2)o1 [Compound A-32, 3-[4,5-bis (p-tolyl)oxazol-2-yl]-N-methyl-propanamide]
- relative TRPM8 activation: 23%

Structure (SMILES): CC(Sc1nc(-c2ccccc2)c(-c2ccccc2)o1)C(=O)NC(C)(C)C (stereo not shown) [Compound A-33, N-tert-butyl-2-(4,5-diphenyloxazol-2-yl) sulfanyl-propanamide]
- relative TRPM8 activation: 21%

Structure (SMILES): CN(C)C(=O)CCc1nc(-c2ccccc2)c(-c2ccccc2)o1 [Compound A-34, 3-(4,5-diphenyloxazol-2-yl)-N,N-dimethyl-propanamide]
- relative TRPM8 activation: 16%

Structure (SMILES): CNC(=O)/C=C/c1nc(-c2ccccc2)c(-c2ccccc2)o1 [Compound A-35, (E)-3-(4,5-diphenyloxazol-2-yl)-N-methyl-prop-2-enamide]
- relative TRPM8 activation: 13%

Structure (SMILES): CNC(=O)CCCc1nc(-c2ccccc2)c(-c2ccccc2)o1 [Compound A-36, 4-(4,5-diphenyloxazol-2-yl)-N-methyl-butanamide]
- relative TRPM8 activation: 12%

Structure (SMILES): CC(C)CNC(=O)C(C)Sc1nc(-c2ccccc2)c(-c2ccccc2)o1 (stereo not shown) [Compound A-37, 2-(4,5-diphenyloxazol-2-yl)sulfanyl-N-isobutyl-propanamide]
- relative TRPM8 activation: 7%

Structure (SMILES): O=C(CSc1nc(-c2ccccc2)c(-c2ccccc2)o1)NC1CCCC1 [Compound A-38, N-cyclopentyl-2-(4,5-diphenyloxazol-2-yl)sulfanyl-acetamide]
- relative TRPM8 activation: 6%

Structure (SMILES): CCC(=O)CCc1nc(-c2ccccc2)c(-c2ccccc2)o1 [Compound A-40, 1-(4,5-diphenyloxazol-2-yl)pentan-3-one]
- relative TRPM8 activation: 5%

Structure (SMILES): CC1CCCCC1NC(=O)CSc1nc(-c2ccccc2)c(-c2ccccc2)o1 (stereo not shown) [Compound A-42, 2-(4,5-diphenyloxazol-2-yl)sulfanyl-N-(2-methylcyclohexyl) acetamide]
- relative TRPM8 activation: 4%

Structure (SMILES): O=C(CSc1nc(-c2ccccc2)c(-c2ccccc2)o1)NC1CCC1 [Compound A-43, N-cyclobutyl-2-(4,5-diphenyloxazol-2-yl)sulfanyl-acetamide]
- relative TRPM8 activation: 3%

Structure (SMILES): c1ccc(-c2nc(C3CCCCN3)oc2-c2ccccc2)cc1 (stereo not shown) [Compound A-44, 4,5-diphenyl-2-(2-piperidyl)oxazole]
- relative TRPM8 activation: 3%

Structure (SMILES): CNC(=O)CCSc1ncco1 [Compound A-45, N-methyl-3-oxazol-2-ylsulfanyl-propanamide]
- relative TRPM8 activation: 2%

Structure (SMILES): CC(C)C(C)NC(=O)CSc1nc(-c2ccccc2)c(-c2ccccc2)o1 (stereo not shown) [Compound A-46, N-(1,2-dimethylpropyl)-2-(4,5-diphenyloxazol-2-yl)sulfanyl-acetamide]
- relative TRPM8 activation: 2%

Structure (SMILES): CNC(=O)C(C)Sc1nc(-c2ccccc2)c(-c2ccccc2)[nH]1 (stereo not shown) [Compound A-47, 2-[(4,5-diphenyl-1H-imidazol-2-yl)sulfanyl]-N-methyl-propanamide]
- relative TRPM8 activation: 2%

Structure (SMILES): CCC(=O)C(C)Sc1nc(-c2ccccc2)c(-c2ccccc2)o1 (stereo not shown) [Compound A-48, 2-(4,5-diphenyloxazol-2-yl) sulfanylpentan-3-one]
- relative TRPM8 activation: 2%

Structure (SMILES): CNC(=O)CCSc1nc(-c2ccccc2)c(-c2ccccc2)o1 [Compound A-49, 3-(4,5-diphenyloxazol-2-yl)sulfanyl-N-methyl-propanamide]
- relative TRPM8 activation: 2%
